Data reported in patent publication US9388123B2, “LSD1-selective inhibitor having lysine structure” (KYOTO UNIVERSITY, priority 2012, dated 2016).
Structures can show the parent of a compound that is named as a salt.

What was measured:
[1] = target: T1, monoamine oxidase A (MAO-A) (Homo sapiens, UniProt P21397); experiment: Monoamine oxidase inhibition test (MAO-Glo assay kit); format: biochemical; conditions: room temperature, 1 hour
T1 construct: purchased Sigma-Aldrich
T1 sequence (P21397 1-527): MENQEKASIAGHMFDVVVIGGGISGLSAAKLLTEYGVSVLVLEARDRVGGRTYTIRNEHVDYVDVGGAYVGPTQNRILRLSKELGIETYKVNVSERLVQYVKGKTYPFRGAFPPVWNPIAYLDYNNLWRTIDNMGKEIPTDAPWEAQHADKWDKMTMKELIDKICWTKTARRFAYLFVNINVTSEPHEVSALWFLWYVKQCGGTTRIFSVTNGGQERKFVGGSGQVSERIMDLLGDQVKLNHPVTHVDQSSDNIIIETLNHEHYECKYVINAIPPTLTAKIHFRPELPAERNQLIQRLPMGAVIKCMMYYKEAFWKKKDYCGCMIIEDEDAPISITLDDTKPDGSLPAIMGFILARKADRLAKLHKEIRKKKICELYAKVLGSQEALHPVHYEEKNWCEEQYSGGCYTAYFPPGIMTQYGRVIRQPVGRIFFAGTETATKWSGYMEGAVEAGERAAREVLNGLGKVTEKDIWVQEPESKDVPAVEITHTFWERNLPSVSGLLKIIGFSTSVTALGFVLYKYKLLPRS
Method: (§6) To the reaction liquid was added 50 μL of a luciferin detection reagent, and the mixture was subjected to a reaction at room temperature for 20 minutes.

[2] = target: T2, monoamine oxidase B (MAO-B) (Homo sapiens, UniProt P27338); experiment: as above; format: biochemical; conditions: room temperature, 1 hour
T2 construct: purchased Sigma-Aldrich
T2 sequence (P27338 1-520): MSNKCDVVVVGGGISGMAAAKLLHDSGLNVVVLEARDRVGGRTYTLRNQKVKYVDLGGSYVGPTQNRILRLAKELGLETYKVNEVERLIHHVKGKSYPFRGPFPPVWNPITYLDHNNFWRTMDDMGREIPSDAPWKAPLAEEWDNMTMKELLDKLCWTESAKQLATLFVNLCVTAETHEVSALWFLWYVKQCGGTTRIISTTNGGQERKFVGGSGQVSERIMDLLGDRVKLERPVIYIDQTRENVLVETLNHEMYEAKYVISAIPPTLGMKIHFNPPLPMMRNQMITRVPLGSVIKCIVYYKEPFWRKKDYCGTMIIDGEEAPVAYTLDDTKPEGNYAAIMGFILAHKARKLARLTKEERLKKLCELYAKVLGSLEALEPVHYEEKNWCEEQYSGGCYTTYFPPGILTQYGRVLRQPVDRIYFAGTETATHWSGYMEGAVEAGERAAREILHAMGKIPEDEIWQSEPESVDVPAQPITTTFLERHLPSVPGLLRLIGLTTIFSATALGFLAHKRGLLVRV
Method: as §6

HeLa cells = experiment: Cancer cell growth inhibition evaluation (MTT assay); format: cell-based; conditions: Homo sapiens, 48 h, read-out: GI50 (μM) HeLa
Method: (§1) Evaluation was performed by measuring the inhibitory activities of a compound against the growth of a human cervical cancer-derived cell line, HeLa cells, and a human neuroblastoma cell line, SH-SY5Y cells. Details thereof are shown below. […] This assay involves, as a principle thereof, measuring an absorbance at the time of color development through a reaction of NADH, which is contained in the mitochondria of viable cells, and MTT to measure the amount of NADH. The assay was performed by the following procedure. […] After the culture, a compound was added. Then, the cells were cultured for an additional 48 hours, and then 5 mg/ml MTT liquid was added at 10 μl per well. The cells were cultured for an additional 3 hours in a CO2 incubator. A solubilization solution (0.04 mol/l hydrochloric acid-isopropanol) was added at 100 μl per well and the mixture was vigorously vortexed. After that, an absorbance at 560 nm was measured with Fusion-aFP (manufactured by PerkinElmer) and the amount of viable cells was determined.

SH-SY5Y cells = experiment: as above; format: cell-based; conditions: Homo sapiens, read-out: GI50 (μM) SH-SY5Y
Method: as §1

HL60 = experiment: Leukemia cell growth inhibition evaluation (WST-8); format: cell-based; conditions: Homo sapiens, HL-60; day 3 (72-hour culture); read-out: Human leukemia cell line GI50 (μM) HL60
From the text: (§2) HL60, THP-1, K562, U937, KGla, HEL, and MDS-L were used as human leukemia cells. The cell lines are cell lines established from various subtypes such as acute myeloid leukemia, acute promyelocytic leukemia, acute monocytic leukemia, acute erythroid leukemia, and myelodysplastic syndromes, which progress to leukemia. Cells obtained by introducing leukemia fusion genes MLL/AF9, MLL/SEPT6, and MLL/ENL into the bone marrow of normal mice with a retrovirus so as to develop leukemia were used as murine leukemia cell lines.
(§3) This assay method involves, as a principle thereof, measuring an absorbance (a peak at from 450 nm to 490 nm) at the time of color development through a reaction of NADH, which is contained in the mitochondria of viable cells, and WST-8 to measure the amount of NADH. Specifically, the assay was performed by the following procedure.
(§4) The cells were plated at 50 μl, i.e., 5,000 cells per well in a 96-well microtiter plate. Next, a test compound dissolved in DMSO was mixed at various concentrations into the same medium, and 50 μl of each of the mixtures was added to each well. A medium was prepared so that the final concentration of the test compound was from 0 μM to 50 μM and so that the addition amount of DMSO was the same, and the cells were cultured in a CO2 incubator. On day 0 before the addition and on day 1, day 2, and day 3 after the addition, WST-8 reagent was added at 20 μl per well, and the cells were cultured for 1 hour in a CO2 incubator. After that, measurement was performed with ARVO X3 (manufactured by PerkinElmer).
(§5) Specifically, an absorbance at 450 nm was measured, an absorbance at 595 nm was measured in the same well, and the absorbance at 595 nm was subtracted from the absorbance at 450 nm to perform background correction for the well itself. Further, a well containing only a medium free of cells was subjected to the same measurement. A value in this case was also subtracted. Thus, the amount of viable cells was represented as a numerical value with correction of the influence of a medicament or a medium as well. Under a condition not containing the test compound (addition of only dimethyl sulfoxide), an exponential increase in number of viable cells on day 1, day 2, and day 3 in the stated order was confirmed.

K562 = experiment: Leukemia cell growth inhibition evaluation (WST-8); format: cell-based; conditions: Homo sapiens, day 3 (72-hour culture), read-out: Human leukemia cell line GI50 (μM) K562
From the text: as §2, §3, §4, §5

KG1a = experiment: Leukemia cell growth inhibition evaluation (WST-8); format: cell-based; conditions: Homo sapiens, KG-1a; day 3 (72-hour culture); read-out: Human leukemia cell line GI50 (μM) KG1a
From the text: as §2, §3, §4, §5

M7 = experiment: Leukemia cell growth inhibition evaluation (WST-8); format: cell-based; conditions: Homo sapiens; day 3 (72-hour culture); read-out: Human leukemia cell line GI50 (μM) M7
From the text: as §2, §3, §4, §5

[3] = test system: MLL/AF9 leukemia cell line; experiment: Leukemia cell growth inhibition evaluation (WST-8); format: cell-based; conditions: Mus musculus, day 3 (72-hour culture), read-out: Mouse MLL-fusion leukemia cell line GI50 (μM) MLL/AF9
From the text: as §2, §3, §4, §5

[4] = test system: MLL/ENL leukemia cell line; experiment: Leukemia cell growth inhibition evaluation (WST-8); format: cell-based; conditions: Mus musculus; day 3 (72-hour culture); read-out: Mouse MLL-fusion leukemia cell line GI50 (μM) MLL/ENL
From the text: as §2, §3, §4, §5

THP1 = experiment: Leukemia cell growth inhibition evaluation (WST-8); format: cell-based; conditions: Homo sapiens, THP-1; day 3 (72-hour culture); read-out: Human leukemia cell line GI50 (μM) THP1
From the text: as §2, §3, §4, §5

U937 = experiment: Leukemia cell growth inhibition evaluation (WST-8); format: cell-based; conditions: Homo sapiens, U-937; day 3 (72-hour culture); read-out: Human leukemia cell line GI50 (μM) U937
From the text: as §2, §3, §4, §5

[5] = test system: human leukemia cell lines; experiment: Leukemia cell growth inhibition evaluation, summary in words; format: cell-based; conditions: Table 5
From the text: as §2, §3, §4, §5

[6] = test system: murine leukemia cell lines; experiment: as above; format: cell-based; conditions: Table 6
From the text: as §2, §3, §4, §5

HEL = experiment: Leukemia cell growth inhibition evaluation (WST-8); format: cell-based; conditions: Homo sapiens, day 3 (72-hour culture), read-out: Human leukemia cell line GI50 (μM) HEL
From the text: as §2, §3, §4, §5

MDS-L = experiment: Leukemia cell growth inhibition evaluation (WST-8); format: cell-based; conditions: Homo sapiens; day 3 (72-hour culture); read-out: Human leukemia cell line GI50 (μM) MDS-L
From the text: as §2, §3, §4, §5

[7] = test system: bone marrow cells of normal mice; experiment: Normal cell growth inhibition evaluation (colony forming ability in methylcellulose semi-solid medium); format: cell-based; conditions: at 10 μM; 10 days culture; FIG. 1
From the text: In general, a semi-solid medium obtained by adding a cytokine involved in differentiation induction to a methylcellulose medium is used to evaluate a colony forming ability. Some of the bone marrow cells contain hematopoietic stem cells and precursor cells, which are sources of hematopoietic cells, and these cells can create a mass (called a colony) formed of several tens, several hundreds, and in some cases, several thousands of cells from a single cell on a semi-solid medium. The colony forming ability of the bone marrow cells may be evaluated by counting the number of the colonies. The colony forming ability in the semi-solid medium well reflects an actual supply ability and construction ability from the hematopoietic stem cells and precursor cells to the hematopoietic cells in vivo.
To 3 ml of MethoCult M3434 (methylcellulose-based semi-solid medium; StemCell Technologies; containing interleukin 3(IL-3), interleukin 6 (IL-6), erythropoietin (EPO), and stem cell factor (SCF)) were added 600,000 bone marrow cells of normal mice (suspended in 300 μl of IMDM medium), and the mixture was stirred well and plated at 1.1 ml per 3.5-cm culture dish. The cells were cultured under the conditions of 5% CO2 and 37° C. for 10 days in an incubator. A mass in which the number of cells was 50 or more was defined as a colony, and the number of colonies formed on each dish was counted.

Compound | melting point [°C] | IC50 [1] [µM] | IC50 [2] [µM] | GI50 (HeLa cells) [µM] | GI50 (SH-SY5Y cells) [µM] | GI50 (HL60) [µM] | GI50 (K562) [µM] | GI50 (KG1a) [µM] | GI50 (M7) [µM] | GI50 [3] [µM] | GI50 [4] [µM] | GI50 (THP1) [µM] | GI50 (U937) [µM] | growth inhibitory / suppressing effect on the human leukemia cell lines (in words) [5] | growth inhibitory / suppressing effect on the murine leukemia cell lines (in words) [6] | GI50 (HEL) [µM] | GI50 (MDS-L) [µM] | colony forming ability [7]
O=C(N[C@@H](CCCCNC1CC1c1ccccc1)C(=O)NCc1cccc(C(F)(F)F)c1)c1ccc(-c2ccccc2)cc1 (stereo partly drawn) (as salt: hydrochloride) [Example 19, 2-[N-(4-Phenylbenzenecarbonyl)]amino-6-(trans-2-phenylcyclopropan-1-amino)-N-(3-trifluoromethylbenzyl)hexanamide Hydrochloride] | 129 to 130 | – | – | – | – | – | – | – | – | – | – | – | – | – | – | – | – | –
NC1CC1c1cccc(OCC[C@H](NC(=O)c2ccccc2)C(=O)NCc2ccccc2)c1 (stereo partly drawn) [Comp. Ex. 2, (S)-trans-N-3-[3-(2-aminocyclopropyl)phenoxy]-1-benzylcarbamoylpropylbenzamide hydrochloride, reference compound] | – | 129 | 326 | 13 | 27 | 6.1 to 33 | 25 to 50 | > 50 | > 50 | < 3.1 | < 3.1 | > 50 | 25 to 50 | a variation in growth inhibitory effect on the human leukemia cell lines depending on the cell lines | high growth inhibitory effects | – | – | –
O=C(N[C@@H](CCCCNC1CC1c1ccccc1)C(=O)NCc1ccc(Cl)cc1)c1ccc(-c2ccccc2)cc1 (stereo partly drawn) [Example 20, 2-[N-(4-Phenylbenzenecarbonyl)]amino-6-(trans-2-phenylcyclopropan-1-amino)-N-(4-chlorobenzyl)hexanamide Hydrochloride] | – | > 100 | > 100 | 4 | 1.4 | – | – | – | – | – | – | – | – | – | – | – | – | –
O=C(N[C@@H](CCCCNC1CC1c1ccccc1)C(=O)NCc1cccc(Cl)c1)c1ccc(-c2ccccc2)cc1 (stereo partly drawn) [Example 21, 2-[N-(4-Phenylbenzenecarbonyl)]amino-6-(trans-2-phenylcyclopropan-1-amino)-N-(3-chlorobenzyl)hexanamide Hydrochloride] | – | > 100 | > 100 | 4.3 | 2.7 | 5 to 10 | – | 10 to 20 | – | – | – | 10 to 20 | 10 to 20 | higher growth suppressing effects on the human leukemia cell lines than Comparative Example 2 | very high growth suppressing effects | < 1.3 | < 1.3 | not inhibited
